Source: patent US4520031A, “Method for reducing toxic effects of methyl-glyoxal bis-guanylhydrazone” (priority 1982, dated 1985)
Entries after “also recorded” stand apart in the source; their conditions may differ. Like-named read-outs stand apart in the source and are kept apart here.

Key:
[1] = tested on: Pancreas; assay: Response to weekly MGBG, pancreas; type: in vivo, human; conditions: 5 evaluable patients
[2] = tested on: mitochondrial respiration; conditions: in vitro; cited from earlier work
[3] = tested on: Lung (non-small cell); assay: Response to weekly MGBG, lung; type: in vivo, human; conditions: 6 evaluable patients
[4] = tested on: Renal; assay: Response to weekly MGBG, renal; type: in vivo, human
[5] = set-up: muscle pain and weakness in patient with acute leukemia: dose or concentration left out as unconfirmed
Procedure: During the course of the clinical experiments, MGBG was administered to patients in approximately weekly doses ranging from 250 to 1000 mg per square meter.
Pre-treatment minimum evaluation included chest roentgenogram, liver and renal function tests, complete blood count with differential and platelet count and serum glucose. Pre-treatment performance status was recorded for each patient in accordance with SWOG criteria.
This intravenous infusion is administered to the patient over a period of time not less than 30 minutes. Accordingly, an approximation of the patient's surface area in square meters is calculated using a height and weight to surface area nomogram (listed in Documenta Geigy, Scientific Tables (1970) p. 537) and this factor is applied in determining the appropriate amount of MGBG salt to be added to the infusion solution. […] In the absence of toxicity, subsequent doses of MGBG are increased by 100 mg/m^2 over the previous week's dose. If patients experience moderate or severe reversible toxicity, the dose is reduced by 100 mg/m^2 relative to the previous week's dose. No change in dosage strength is made for mild toxicity.

[6] = tested on: Ewings; assay: Response to weekly MGBG, Ewings; type: in vivo, human; conditions: 1 evaluable patient
[7] = tested on: advanced malignant disease; assay: Response to weekly MGBG, all diagnoses (Table I); type: in vivo, human
[8] = cited from earlier work
[9] = tested on: Adenocarcinoma (unknown primary); assay: Response to weekly MGBG, adenocarcinoma; type: in vivo, human
[10] = human subjects undergoing MGBG treatment; cited from earlier work
[11] = tested on: Bladder (transitional cell); assay: Response to weekly MGBG, bladder; type: in vivo, human
[12] = tested on: Lymphoma; assay: Response to weekly MGBG, lymphoma; type: in vivo, human; conditions: 2 evaluable patients
[13] = tested on: leukemia-L1210; conditions: Freelander and French; cited from earlier work
[14] = tested on: spermidine biosynthesis; conditions: in vitro; concentrations as low as; cited from earlier work
[15] = tested on: protein synthesis; conditions: in vitro; cited from earlier work
[16] = tested on: Breast; assay: Response to weekly MGBG, breast; type: in vivo, human; conditions: 12 evaluable patients
[17] = tested on: Esophagus; assay: Response to weekly MGBG, esophagus; type: in vivo, human
[18] = first twelve patients, 250 mg/m^2 weekly
[19] = acute leukemia, iv 150 mg/m^2/day
[20] = lymphomas and solid tumors, iv 150 mg/m^2/day

CC(C=NNC(=N)N)=NNC(=N)N [MGBG, 1,1'-[(methylethanediylidene)dinitrilo] diguanidine]
CR + PR [1]: 2 | No Response [1]: 3 | PR (Partial response) [1]: 2 | concentration with complete inhibition of mitochondrial respiration [2]: ≥ 30 µg/mL | CR + PR [3]: 2 | No Response [3]: 4 | PR (Partial response) [3]: 2 | CR + PR ([4]; 5 evaluable patients): 1 | IMP (Improvement noted) ([4]; 5 evaluable patients): 2 | No Response ([4]; 5 evaluable patients): 2 | PR (Partial response) ([4]; 5 evaluable patients): 1 | Duration Months ([4]; duration of CR + PR): 5 Months | Number with Toxicity ([5]; 1 course MGBG, 13 patients): 1 patients | Number with Toxicity (Approx %) ([5]; 1 course MGBG, 13 patients): 8% | Number with Toxicity ([5]; 2 courses MGBG, 25 patients): 7 patients | Number with Toxicity (Approx %) ([5]; 2 courses MGBG, 25 patients): 28% | Number with Toxicity ([5]; 3 courses MGBG, 15 patients): 6 patients | Number with Toxicity (Approx %) ([5]; 3 courses MGBG, 15 patients): 40% | Anemia, Hemoglobin 5.0-6.9 g/100 ml ([5]; 90 patients): 2 patients | Anemia, Hemoglobin 7.0-8.9 g/100 ml ([5]; 90 patients): 1 patients | Diarrhea: 3-4 stools/day, no dehydration ([5]; 90 patients): 1 patients | Diarrhea: 4 liquid stools/day, IV hydration required ([5]; 90 patients): 1 patients | Granulocytes: <1000/mm^3 ([5]; 90 patients): 3 patients | vomiting ≤6 times/day ([5]; 90 patients): 5 patients | vomiting ≥7 times/day ([5]; 90 patients): 3 patients | patients with no toxicity (number) ([5]; 90 patients, 500 mg/m^2 or more each week): 67 patients | Mucositis: drug-related death ([5]; 90 patients, patient with hepatoma, one dose at 600 mg/m^2): 1 patients | muscle pain and weakness in patient with acute leukemia ([5]; acute leukemia, three weekly doses): One | toxicity at 250 mg/m^2 weekly [5, 18]: no toxicity | Anorexia (Approx. %) ([5]; human, in vivo): 8% | Anorexia (No. of Patients) ([5]; human, in vivo): 7 patients | Balanitis (Approx. %) ([5]; human, in vivo): 4% | Balanitis (No. of Patients) ([5]; human, in vivo): 4 patients | Diarrhea (Approx. %) ([5]; human, in vivo): 3% | Diarrhea (No. of Patients) ([5]; human, in vivo): 3 patients | Granulocytes: <1500 mm^3 ([5]; human, in vivo): 2 patients | Hematologic (Approx. %) ([5]; human, in vivo): 11% | Hematologic (No. of Patients) ([5]; human, in vivo): 10 patients | Mucositis: erythema ([5]; human, in vivo): 3 patients | Mucositis: ulcers, able to eat ([5]; human, in vivo): 7 patients | Mucositis: ulcers, unable to eat ([5]; human, in vivo): 6 patients | Myelosuppression (number) ([5]; human, in vivo): 7 patients | Myelosuppression (percent) ([5]; human, in vivo): 8% | Myopathy (Approx. %) ([5]; human, in vivo): 3% | Myopathy (No. of Patients) ([5]; human, in vivo): 3 patients | Nausea and vomiting (Approx. %) ([5]; human, in vivo): 16% | Nausea and vomiting (No. of Patients) ([5]; human, in vivo): 14 patients | Platelets: 25 × 10^3 -50 × 10^3 /mm^3 ([5]; human, in vivo): 2 patients | Skin rash (Approx. %) ([5]; human, in vivo): 2% | Skin rash (No. of Patients) ([5]; human, in vivo): 2 patients | Urethritis (Approx. %) ([5]; human, in vivo): 3% | Urethritis (No. of Patients) ([5]; human, in vivo): 3 patients | Vasculitis (Approx. %) ([5]; human, in vivo): 2% | Vasculitis (No. of Patients) ([5]; human, in vivo): 2 patients | anemia (number) ([5]; human, in vivo): 3 patients | anemia (percent) ([5]; human, in vivo): 3% | bloody diarrhea ([5]; human, in vivo): 1 patients | hospitalization secondary to vomiting ([5]; human, in vivo): 1 patients | nausea, no vomiting ([5]; human, in vivo): 5 patients | severe muscle pain and weakness of the lower extremities ([5]; human, in vivo): three | cumulative toxicity ([5]; increasing numbers of courses): toxicity appeared to be cumulative | reversibility of muscle pain and weakness ([5]; three patients): reversible with drug withdrawal | creatinine phosphokinase and aldolase ([5]; three patients with muscle pain and weakness): normal | Number with Toxicity ([5]; ≥4 courses MGBG, 56 patients): 28 patients | Number with Toxicity (Approx %) ([5]; ≥4 courses MGBG, 56 patients): 50% | No Response [6]: 1 | biologic effect at 250 mg/m^2 ([7]; 12 patients, 250 mg/m^2): no apparent biologic effect | response at 250 mg/m^2 weekly [7, 18]: no response | CR (Complete response), total ([7]; weekly, 65 evaluable patients): 2 | CR + PR, total ([7]; weekly, 65 evaluable patients): 11 | IMP (Improvement noted), total ([7]; weekly, 65 evaluable patients): 9 | No Response, total ([7]; weekly, 65 evaluable patients): 45 | PR (Partial response), total ([7]; weekly, 65 evaluable patients): 9 | antineoplastic activity in solid tumors ([7]; weekly, colon, esophageal, renal cell, prostate, and breast carcinoma): effective | Leukopenia <3000/mm^3 or <50% of initial value [8, 19]: 16 patients | Leukopenia <3000/mm^3 or <50% of initial value, severe toxicity which contributed to death [8, 19]: 1 patients | response to MGBG ([8]; intravenous 150 mg/m^2/day, Regelson and Holland): seen only in the presence of significant toxicity which seriously compromised any clinical improvement | "Myositis" ([8]; iv 150 mg/m^2/day, 46 patients): 5 patients | Cutaneous lesions ([8]; iv 150 mg/m^2/day, 46 patients): 12 patients | Diarrhea ([8]; iv 150 mg/m^2/day, 46 patients): 32 patients | Diarrhea, severe toxicity which contributed to death ([8]; iv 150 mg/m^2/day, 46 patients): 1 patients | Oropharyngeal and/or esophageal toxicity ([8]; iv 150 mg/m^2/day, 63 courses in 46 patients): 43 patients | Hypoglycemia <60 mg % ([8]; iv 150 mg/m^2/day): 4 patients | Hypoglycemia <60 mg %, severe toxicity which contributed to death ([8]; iv 150 mg/m^2/day): 2 patients | Laryngitis ([8]; iv 150 mg/m^2/day): 14 patients | Laryngitis, severe toxicity which contributed to death ([8]; iv 150 mg/m^2/day): 1 patients | Proctitis ([8]; iv 150 mg/m^2/day): 2 patients | Vulvovaginitis ([8]; iv 150 mg/m^2/day): 4 patients | Leukopenia <3000 mm^3 [8, 20]: 5 patients | Leukopenia <3000 mm^3, severe toxicity which contributed to death [8, 20]: 1 patients | Thrombocytopenia <75,000/mm^3 [8, 20]: 3 patients | deaths to which severe toxicity contributed ([8]; of 27 patients who died while on study): 6 patients | CR (Complete response) ([9]; 3 evaluable patients): 1 | CR + PR ([9]; 3 evaluable patients): 1 | IMP (Improvement noted) ([9]; 3 evaluable patients): 1 | PR (Partial response) ([9]; 3 evaluable patients): 1 | Duration Months ([9]; duration of CR + PR): 2 Months | toxic effects unique to man [10]: esophagitis, ulcerative pharyngitis, laryngitis, stomatitis, genital mucosa swelling, conjunctivitis, mucositis, erythema, edema, desquamating dermatitis, and profound anorexia with associated weight loss; also recorded: mucositis, vasculitis, and profound anorexia with associated weight loss | CR (Complete response) ([11]; 3 evaluable patients): 1 | CR + PR ([11]; 3 evaluable patients): 1 | No Response ([11]; 3 evaluable patients): 2 | Duration Months ([11]; duration of CR + PR): 1 Months | No Response [12]: 2 | antitumor activity [13]: growth inhibiting effects; also recorded: antitumor activity | concentration at which MGBG is a potent inhibitor of spermidine biosynthesis [14]: ≥ 0.5 µg/mL | concentration with direct toxic effects, including inhibition of protein synthesis [15]: ≥ 30 µg/mL | IMP (Improvement noted) [16]: 2 | No Response [16]: 10 | CR + PR ([17]; 2 evaluable patients): 1 | No Response ([17]; 2 evaluable patients): 1 | PR (Partial response) ([17]; 2 evaluable patients): 1 | Duration Months ([17]; duration of CR + PR): 3 Months
